From patent US5792784A, “Coupling product obtained from histamine and an amino acid” (Babizhayev; Marc, priority 1993, dated 1998)

Columns and labels:
Format in all cases: biochemical
[1] = "Peroxidase" activity: reduction of 13-monoperoxide of linoleic acid (L-OOH); details: for "peroxidase" activity: 13-monoperoxide linoleic acid 0.5 mM, control 36.7
Description: Lipid peroxides evolution is monitored with the help of 3 methods:
1°) spectrophotometric measure at 233 nm
(O. S. Privett, C. Nickell, W. O. Lundberg, and P. D. Bayer, dans J.Am.Oil Chem. Soc, Vol 32 (1955), P.505-511
2°) Iodometric dosage: M.Hicks' and J. M. Gebicki's method, Analytical Biochemistry, vol 99 (1979), p 249-253.
3°) Chromatography on silica gel plate (hexane/ether/acetic acid 8/7/0.1).
(a) 13-monoperoxide linoleic acid 0.5 mM without reducing agent (preparation according to H. W. Gardner's method Lipids, Vol.10 (1975), p. 248-252).

[2] = Tests with peroxidized compounds: reducing behaviour
[3] = Inhibition of linoleic acid peroxidation (Fe/ascorbic acid; TBA/MDA); details: 25 mM (mixture: 25 mM each), linoleic acid 0.25 mg/ml
Description: oxidation substrate: linoleic acid (0.25 mg/ml), free radicals generating system: Fe/ascorbic acid detection: thiobarbituric acid (TBA)/malondialdehyde (MDA)

[4] = "Peroxidase" type activity on liposome model: reduction of phosphatidylcholine hydroperoxides (PC-OOH)
Description: The "peroxidase" type activity also has been evaluated on a "liposome" model. The phosphatidylcholine hydroperoxides (PC-OOH) are prepared according to a similar procedure to the one already described for the linoleic acid monoperoxide.
The peroxide species reduction is followed by dosing the remaining peroxides according to the method laid down by Hicks M and Gebicki J. M.--Anal. Biochem, vol 99, (1979), p. 249-253.

[5] = Inhibition of deoxyribose oxidation (superoxide from xanthine oxidase/hypoxanthine; TBA/MDA detection); details: 10 mM
Description: Several in vitro tests have been carried out in order to reveal the evoked different antioxidant properties.
Experimental procedure described by J. M. C. Gutteridge in Biochemistry Journal, vol. 224 (1984), p. 761-767: oxidation substrate: deoxyribose
Superoxide anions production system: xanthine oxidase/hypoxanthine detection: thiobarbituric acid/malondialdehyde (MDA)

NCCC(=O)NCCc1c[nH]cn1 [β-alanyl-histamine]
"peroxidase" activity ([1]; 10 mM): 138.1 mol of L-OOH reduced/hour | "peroxidase" activity ([1]; 20 mM): 187.5 mol of L-OOH reduced/hour | "peroxidase" activity with the adding of EDTA ([1]; EDTA 0.5 mM): completely inhibited | reducing behaviour towards peroxidized compounds [2]: behaves in a way comparable to β-alanyl-histidine or carnosine | % inhibition [3]: 47% | MDA per mg of linoleic acid ([3]; control 7.95): 4.25 mol MDA per mg of linoleic aci | number of moles of PC-OOH reduced/initial number of moles of PC/hour ([4]; 10 mM): 0.77 × 10^-3 moles of PC-OOH reduced/initia | number of moles of PC-OOH reduced/initial number of moles of PC/hour ([4]; 25 mM): 1.56 × 10^-3 moles of PC-OOH reduced/initia | % inhibition of deoxyribose oxidation [5]: 49%
